Experimental data published in patent US20260167679A1, “FUSION PROTEIN TARGETING MITOCHONDRIA, METHOD OF MAKING AND USE THEREOF” (UNIVERSITY OF ROCHESTER, priority 2020, published 2026).

Legend:
Assay type in all cases: in vivo, Caenorhabditis elegans
C. elegans [1] = assay: Lifespan of mtON-expressing worms
Excerpt: Light treatment began at day 1 of adulthood for all experiments, a, Survival curves of mtON-expressing animals (extrachromosomal array). […] One-way ANOVA with Tukey's test; n=30 animals for day 4 conditions and 40 animals for day 10. […] The dotted arrow represents the molecular mechanisms to be investigated that link Δψm to aged physiology.
A) survival curve with the same conditions as FIG. 15B, but with light intensity (0.005 mW/cm2) below the threshold for mtON activation (0.01 mW/cm2). […] B) Survival curves of mtON-expressing animals versus mtON-expressing animals in a long-lived genetic background containing a constitutively active AMPK mutation.
Strain APW32 expresses mtON as an extrachromosomal array (mtON ext. chr. array), and strain APW273 expresses mtON in single copy through CRISPR/Cas9 genome integration (mtON CRISPR). See methods section for genotype details. Light intensity was varied to maintain temperature as best as possible, and proximal temperature readings directly adjacent to assay plates are reported to show local temperature variability from different incubators and from different light sources. All incubators were set to 20° C.

C. elegans [2] = assay: Hypoxia and reoxygenation with hypoxic preconditioning; conditions: +ATR, baseline survival, n=12 independent experiments
Protocol: (§1) Experiments were carried out using a hypoxic chamber (Coy Laboratory Products, 5%/95% H2/N2 gas, palladium catalyst) at 26° C. with 50-100 animals per plate. O2 was <0.01%. Hypoxic preconditioning (PC) duration was 4 h, and control animals were incubated at 26° C. in room air for the same time. 1 Hz illumination (Quantum LED, 0.02 mW/mm^2) was carried out during PC period or during the hypoxic period. Hypoxic exposure was for 18.5, 21 h after PC. Twenty-four hours after hypoxia exposure, animals that were moving or those that moved in response to a light touch to the head were scored as alive. Data from days where PC was at least 15% effective for both +ATR and −ATR were used. Animals supplemented with ATR were allowed to lay eggs onto plates with no ATR that were subsequently used for HR experiments to minimize confounding effects of ATR. ATR from the parent animal was sufficient to provide active mtON in progeny as tested by the azide toxin assay described above. […] FCCP dissolved in ethanol was deposited onto seeded NGM plates.

C. elegans [3] = assay: ETC inhibitor assays, survival of animals
Protocol: Experiments were performed on at least three separate days, using 15-100 young adult animals per plate. Seeded plates were supplemented with rotenone (50 μM final concentration), antimycin A (50 μM final concentration), or oligomycin A (31 μM final concentration) 24 h before animals were transferred onto them. For azide toxicity, animals were placed in M9 buffer with 250 mM azide. Control plates were kept in the dark, and experimental plates were exposed to 1 Hz light (Quantum LED, 0.02 mW/mm^2) for the duration of the experiment. For all toxins, animals that were moving or those that moved in response to a light touch to the head were scored as alive. For rotenone, surviving animals were scored after 5 h. For antimycin A, animals were scored 16 h after exposure. For azide, animals were exposed for 1 h in M9 and allowed to recover for 1 h on a seeded culture plate and then survival was scored. Azide experimental plates were exposed to light (XCite LED, 0.19 mW/mm^2) for the duration of azide treatment and recovery. […]. For oligomycin A, animals were scored 18 h after exposure.
as §1

Structure (SMILES) | lifespan (C. elegans [1]; ATR and light in wild-type animals) | lifespan or physiology (C. elegans [1]; ATR supplementation alone) | survival after hypoxia and reoxygenation (baseline) (C. elegans [2]) | survival (C. elegans [3]; 50 μM rotenone for 5 hours, +ATR −light (ATR alone)) | survival (C. elegans [3]; azide toxin assay, progeny of ATR-supplemented parents, +ATR −light) [%] | lifespan (C. elegans [1]; FCCP on its own)
CC1=C(/C=C/C(C)=C/C=C/C(C)=C/C=O)C(C)(C)CCC1 [ATR, all trans-retinal, reference compound] | did not affect lifespan | does not affect lifespan or physiology | 49.7+/−20.3% | protective | 27.5 | 
N#CC(C#N)=NNc1ccc(OC(F)(F)F)cc1 [FCCP, carbonyl cyanide p-(trifluoromethoxy)phenylhydrazone, reference compound] |  |  |  |  |  | no effect on lifespan
